Values quoted from earlier work as cited in US8691803B2, “Process for the preparation of antibiotic compounds” (Savior Lifetec Corporation, priority 2011, dated 2014).

Conditions: storage; must be stored at a low temperature

Temperature stability: unstable above −20 °C
SMILES: C[C@@H](O)[C@H]1C(=O)N2C(C(=O)O)=C(S[C@@H]3CN[C@H](C(=O)Nc4cccc(C(=O)O)c4)C3)[C@H](C)[C@H]12 [ertapenem]
